Measurements reported in patent US5955053A, “Metal chelates as pharmaceutical imaging agents, processes of making such and uses thereof” (Emory University, priority 1996, dated 1999).
Like-named read-outs stand apart in the source and are kept apart here.

Columns and labels:
[1] = Renal clearance / renal excretion in rats (statements in words); type: in vivo, rat; details: for Renal clearance of DD-EC compared to LL-EC: vs LL-isomer
Experimental: (§1) Tracheostomy was performed in an anesthetized rat and the left jugular vein was cannulated with one piece of PE-50 tubing for injection of the ^99m Tc radiopharmaceutical. The bladder was catheterized utilizing heat flared PE-50 tubing for urine collection. A bolus injection of the radiopharmaceutical (400-500 μCi/0.25 ml) was given and the rat was imaged (1 frame/10 s) for 22 minutes (130 frames) using a gamma camera. Each animal was sacrificed at the conclusion of the dynamic study and simultaneous static images of the isolated lungs, heart, liver, spleen, stomach, kidneys, bowel and bladder with urine were acquired as well as a static image of the rat carcass without the organs. Total counts for the injected dose were determined from the sum of the isolated organ counts and the carcass counts decay corrected to the time of organ imaging. Regions of interest were drawn around each organ to determined the percent injected dose in each organ.

[2] = Normal volunteer studies: plasma clearance, urinary excretion and imaging; type: in vivo, human; details: humans; for Clearance rate (EC/OIH): ± spread as printed
Experimental: ^99m Tc LL-EC, DD-EC and DL-EC were each evaluated in three normal male volunteers. The HPLC purified complexes and phosphate-buffered saline (pH 7.0) were passed through a SEP-PAK Plus C18 cartridge (primed with 1 ml ethanol) and a sterile Millex-GS 0.22 μm filter unit into a sterile, pyrogen-free empty vial. The final concentration was ~2.0 mCi/2.5 ml and the final pH ranged from 5.7 to 7.4. Test samples of each complex were sterile and pyrogen free. Approximately 2 mCi of each ^99m Tc complex were coinjected with 200 μCi of I-131 OIH and plasma samples were obtained at 5, 10, 15, 20, 30 45, 60 and 90 minutes postinjection. The plasma clearances of I-131 OIH and each EC complex were determined using the single injection, two-compartment model of Sapirstein et al., Am. J. Physiol. 181:330-336. The volunteers voided at 30, 90 and 180 minutes postinjection to determine the percent dose in the urine at each time period. A urine sample from the 30 minute urine collection was obtained for HPLC analysis from one of the normal volunteers and analyzed for each complex. One volunteer was imaged with each complex using a simultaneous acquisition with a 20% window centered over the 363 KeV photopeak of I-131 and a second 20% window over the 140 KeV photopeak of ^99m Tc. Data were acquired in a 128×128 matrix using a three phase dynamic acquisition: phase 1 consisted of 24 two second frames, phase 2 consisted of 16 fifteen second frames and phase 3 consisted of 40 thirty second frames. Data were acquired using a general Electric (Milwaukee, Wis.) Star-Cam computer fitted with a high energy collimator. All studies were performed with the approval of the Human Investigations Committee and a signed consent form was obtained.

[3] = physiological pH; cited from earlier work
[4] = Biodistribution in normal rats; type: in vivo, rat; details: ^99m Tc
Experimental: as §1, with “A bolus injection of the radiopharmaceutical (400-500 μCi/0.25 ml) was given and the rat was imaged (1 frame/10 s) for 22 minutes (130 frames) using a gamma camera.” left out

[5] = in vivo; cited from earlier work
[6] = cited from earlier work
[7] = mice; cited from earlier work
[8] = in vivo; cited from earlier work; remark: listed apart in the source
[9] = mice and baboons; cited from earlier work
[10] = in vivo; cited from earlier work; remark: listed apart in the source
[11] = cited from earlier work; remark: listed apart in the source
[12] = % of that of OIH; cited from earlier work
[13] = cited from earlier work; remark: listed apart in the source
[14] = normal volunteers; increases in renal failure; cited from earlier work
[15] = Stability of metal chelates; type: physicochemical
[16] = in vivo; cited from earlier work; remark: listed apart in the source

Q: Which “Renal clearance of DD-EC compared to LL-EC” value [1] does the source give for `O=C(O)[C@@H](CS)NCCN[C@H](CS)C(=O)O` (99mTc complex, metal not drawn) [D,D-EC, D,D-ethylenedicysteine] here?
A: superior to L,L-EC in rats

Q: And the “Renal clearance of DD-EC compared to LL-EC” value ([1]; listed as DD-EC)?
A: significantly higher than that of its LL-isomer

Q: What about the “Renal clearance / excretion compared to MAG3” value ([1]; vs ^99m Tc MAG3) of the same molecule?
A: more rapid renal clearance than ^99m Tc MAG3

Q: What about the “Renal clearance / excretion compared to MAG3” value ([1]; vs ^99m Tc MAG3, listed as DD-EC) of the same molecule?
A: significantly higher

Q: What about the Imaging properties [2] of the same molecule?
A: excellent imaging properties

Q: And the “Rate of excretion in the urine” value [2]?
A: excreted at essentially the same rate in the urine

Q: What about the “Clearance rate (EC/OIH)” value [2] of the same molecule?
A: 82 ±8%

Q: And the Dianionic form [3]?
A: 80%

Q: And the Monoanionic form [3]?
A: 20%

Q: What about the “Biodistribution: Bladder” value ([4]; 22 minutes post injection) of the same molecule?
A: 63.2% of total activity

Q: And the “Biodistribution: Carcass” value ([4]; 22 minutes post injection)?
A: 25.4% of total activity

Q: And the “Biodistribution: Intestines” value ([4]; 22 minutes post injection)?
A: 2.6% of total activity

Q: What about the “Biodistribution: Kidneys” value ([4]; 22 minutes post injection) of the same molecule?
A: 5.4% of total activity

Q: And the “Biodistribution: Liver” value ([4]; 22 minutes post injection)?
A: 2.9% of total activity

Q: And the “Biodistribution: Stomach” value ([4]; 22 minutes post injection)?
A: < 1% of total activity

Q: With “L-cysteinylethylenepyridine carboxamide [L-CEPIC]” as the molecule, how does the “Removal by the kidneys” value [1] read?
A: rapid and selective removal

Q: And the “Uptake in other major organs” value [1]?
A: only trace amounts

Q: And the “Renal clearance / excretion compared to MAG3” value ([1]; vs ^99m Tc MAG3)?
A: even more rapidly excreted by the kidneys than ^99m Tc MAG3

Q: And the “Biodistribution: Bladder” value ([4]; 30 minutes post injection)?
A: 58.2% of total activity

Q: And the “Biodistribution: Carcass” value ([4]; 30 minutes post injection)?
A: 19.8% of total activity

Q: And the “Biodistribution: Intestines” value ([4]; 30 minutes post injection)?
A: 6.4% of total activity

Q: What about the “Biodistribution: Kidneys” value ([4]; 30 minutes post injection) of the same molecule?
A: 7.2% of total activity

Q: And the “Biodistribution: Liver” value ([4]; 30 minutes post injection)?
A: 4.8% of total activity

Q: And the “Biodistribution: Stomach” value ([4]; 30 minutes post injection)?
A: 1.9% of total activity

Q: With `C[C@H](NC(=O)CNC(=O)CS)C(=O)NCC(=O)O` [MAGAG, mercaptoacetylglycylalanylglycine] as the molecule, how does the “Comparison of diastereomers to MAG3” value [5] read?
A: one diastereomer comparable and the other considerably inferior

Q: For “^99m Tc mercaptoacetylglycylglycyl-taurine”, which “Comparison to MAG3 in dogs” value [6] is on record?
A: inferior to ^99m Tc MAG3 in dogs

Q: With `O=C([O-])[C@H](C[S-])NCCN[C@@H](CS)C(=O)[O-].[O]=[Tc+3]` [L,L-EC, L,L-ethylenedicysteine, reference compound] as the molecule, how does the “Rate of excretion in the urine” value [2] read?
A: excreted at essentially the same rate in the urine

Q: And the “Clearance rate (EC/OIH)” value [2]?
A: 70 ±3%

Q: What about the Dianionic form [3] of the same molecule?
A: 80%

Q: What about the Monoanionic form [3] of the same molecule?
A: 20%

Q: What about the “Excretion into the urine” value [7] of the same molecule?
A: rapidly and efficiently excreted into the urine in mice

Q: What about the “Biodistribution: Bladder” value ([4]; 22 minutes post injection) of the same molecule?
A: 45.6% of total activity

Q: What about the “Biodistribution: Carcass” value ([4]; 22 minutes post injection) of the same molecule?
A: 22.6% of total activity

Q: And the “Biodistribution: Intestines” value ([4]; 22 minutes post injection)?
A: 1.8% of total activity

Q: What about the “Biodistribution: Kidneys” value ([4]; 22 minutes post injection) of the same molecule?
A: 24.4% of total activity

Q: And the “Biodistribution: Liver” value ([4]; 22 minutes post injection)?
A: 4.5% of total activity

Q: What about the “Biodistribution: Stomach” value ([4]; 22 minutes post injection) of the same molecule?
A: < 1% of total activity

Q: What about the “Excretion by the kidneys” value [8] of the same molecule?
A: excreted rapidly and efficiently by the kidneys

Q: What about the “Comparison to enantiomer DD-EC” value [9] of the same molecule?
A: superior to the enantiomer ^99m Tc DD-EC

Q: And the “Pharmacokinetic properties relative to OIH and MAG3” value [9]?
A: more closely approached those of OIH than the properties of MAG3

Q: For “^99m Tc mercaptoacetylglycylglycyl-L-alanine [MAG2-Ala]”, which “Characteristics as imaging agents” value [10] is on record?
A: promising characteristics as imaging agents

Q: Which “Rate of renal clearance” value [1] does the source give for “thioacetamidethiourea-para-phenylCOOH [TATU-pPhCOOH]” here?
A: cleared at a moderate rate

Q: Which “Renal clearance / excretion compared to MAG3” value ([1]; vs ^99m Tc MAG3) does the source give for “thioacetamidethiourea-ethylCOOH [TATU-EtCOOH]” here?
A: superior renal clearance

Q: With `O=C(O)CNC(=O)c1ccccc1[131I]` [OIH, ^131 I-orthohippurate] as the molecule, how does the “Clearance relative to PAH” value ([11]; % of the clearance of PAH) read?
A: 83%

Q: Which results are given for `O=C([O-])CN=C([O-])CN=C([O-])CN=C([O-])C[S-].[O]=[99Tc+3]` [MAG3, technetium-99m (^99m Tc) mercaptoacetyltriglycine, reference compound]?
A: Clearance relative to OIH [12]: 50-60%; Clearance compared to DTPA ([11]; in vivo): higher clearance; Biodistribution: Bladder ([4]; 22 minutes post injection): 57% of total activity; Biodistribution: Carcass ([4]; 22 minutes post injection): 14% of total activity; Biodistribution: Intestines ([4]; 22 minutes post injection): 5% of total activity; Biodistribution: Kidneys ([4]; 22 minutes post injection): 23% of total activity; Biodistribution: Liver ([4]; 22 minutes post injection): 1% of total activity; Biodistribution: Stomach ([4]; 22 minutes post injection): < 1% of total activity; Plasma-protein binding [13]: very high; Transport into the small intestine via the hepatobiliary system [14]: a small percentage

Q: With `CC(C)(S)C(=O)NCCCNC(=S)NCCC(=O)O` [(Me)2 -TAPTU-EtCOOH, dimethylthioacetamidepropylthiourea-ethylCOOH] as the molecule, how does the “Stability compared with corresponding thioacetamidethiourea derivative” value [15] read?
A: greater stability than the corresponding thioacetamidethiourea derivative

Q: What about the “Stability compared with corresponding thioacetamidethiourea derivative” value ([15]; listed as dimethyl-TAPTU-EtCOOH) of the same molecule?
A: more stable than the corresponding thioacetamide-thiourea derivative

Q: With “^99m Tc L,L-ethylenedicysteine diethyl ester [LL-ECD]” as the molecule, how does the Brain perfusion agent [16] read?
A: good brain perfusion agent

Q: For “^99m Tc mercaptoacetylglycylglycyl-L-asparagine [MAG2-Asn]”, which “Characteristics as imaging agents” value [10] is on record?
A: promising characteristics as imaging agents

Q: For D,L-ethylenedicysteine [DL-EC], which “Rate of excretion in the urine” value [2] is on record?
A: slower rate of excretion

Q: And the “Clearance rate (EC/OIH)” value [2]?
A: 40 ±5%

Q: For “^99m Tc mercaptoacetylglycylglycyl-L-glutamine [MAG2-Gln]”, which “Characteristics as imaging agents” value [10] is on record?
A: promising characteristics as imaging agents
